This note sets out measurements from patent publication US9522908B2, “Ezrin inhibitors and methods of making and using” (Georgetown University, priority 2010, dated 2016).

The test system of one series is zebrafish embryos. In words: Zebrafish embryo development assay. Format: in vivo, Zebrafish (Danio rerio). How it is done: Animals. Zebrafish (Danio rerio) were raised, maintained and crossed as described before (Westerfield, M. University of Oregon Press, Eugene. Or., 1993). Development of embryos was studied at 28° C. and staging was determined by morphological characteristics (Kimmel, C. B., et al., Dev. Dyn. 203, 253-310 (1995)).
A translation blocking anti-ezrin morpholino oligonucleotide (MO), described and validated by Link et al. (Link, V., et al., J. Cell Sci., 119, 2073-2083 (2006)), MO1, 5′-[…] (SEQ ID NO:1), was synthesized by Gene-Tools, LCC (Philomath, Oreg.). MOs were microinjected into one to four cell stage embryos.
Zebrafish embryos were arrayed, three per well, in 96-well plates. Compounds were added at 1-33 μM concentrations. Embryos were observed, and photographed, at 70% epiboly, 24-28 hours post fertilization (hpf) and 48 hpf.

The subject of series [1] is low ezrin expressed K12 cells. In words: Electric cell migration system, K12 cells. Format: cell-based. The note with it: non-toxic concentration. How it is done:
(§1) Anti-migration potential of the embodied compounds were validated using an electric cell migration system. High ezrin expressed K7M2 cells and low ezrin expressed K12 cells were treated with non-toxic concentrations of a compound and their corresponding anti-migration activity was measured. Data is represented as the ratio of compound K7M2 anti-migration activity divided by the K12 anti-migration activity. The X-axis details the non-toxic concentration of the compound used in the study.

Series [2] deals with high ezrin expressed K7M2 cells. Put plainly: Electric cell migration system, K7M2 cells. The following applies: non-toxic concentration; compared to NSC 668394. The class given is cell-based. How it is done: as §1

Consider “5′-CGCGAACATTTACTGGTTTAGG (SEQ ID NO:1) (all phosphorodiamidate morpholino (PMO)) [MO1]”, for which the “embryos with epiboly defects at 90% epiboly stage” value with zebrafish embryos (3 ng injected) is reported as 42%; in the series with zebrafish embryos (6 ng injected) it was 69%; in the series with zebrafish embryos (12 ng injected), 69%.
With `COc1ccc(CCNC2=CC(=O)c3cccnc3C2=O)cc1Cl` [GK2-057], the “effect on K12 cell line migration” value in series [1] is “benign”. Further, in series [2], the “anti-migratory activity on K7M2 cells” value is listed as “greater anti-migratory activity”.
